Data published in the supplement of paper PMC10307832.

Columns and labels:
Assay in all cases: relative viability (nuclei count vs DMSO), 5 days (fraction); higher = more cells survive
AZ3146 + Navitoclax = compound: CN1CCC(CC1)OC2=CC(=C(C=C2)NC3=NC=C4C(=N3)N(C(=O)N4C)C5CCCC5)OC [AZ3146] + CC1(C)CCC(c2ccc(Cl)cc2)=C(CN2CCN(c3ccc(C(=O)NS(=O)(=O)c4ccc(N[C@H](CCN5CCOCC5)CSc5ccccc5)c(S(=O)(=O)C(F)(F)F)c4)cc3)CC2)C1 [Navitoclax] (partner 0.5 µM)
In short: (§1)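 For relative viability, nuclei counts in treated wells were divided by those in vehicle wells. Lung cancer cell lines had been pin-tool dosed in 1536-well plates the day after seeding and cultured for 5 days, then fixed and stained in one step (final 0.05% Triton X-100, 1% formaldehyde, 1 ug/ml Hoechst) and imaged at 4×. Doses were one drug alone or a fixed anchor-drug dose plus five library-drug doses (not always all listed) in √10 steps, and values are duplicate-plate medians.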

GSK-J4 + Vorinostat = compound: CCOC(=O)CCNc1cc(N2CCc3ccccc3CC2)nc(-c2ccccn2)n1 [GSK-J4] + O=C(CCCCCCC(=O)Nc1ccccc1)NO [Vorinostat] (partner 1 µM)
In short: as §1

AZ3146 + Trametinib = compound: CN1CCC(CC1)OC2=CC(=C(C=C2)NC3=NC=C4C(=N3)N(C(=O)N4C)C5CCCC5)OC [AZ3146] + CC(=O)Nc1cccc(-n2c(=O)n(C3CC3)c(=O)c3c(Nc4ccc(I)cc4F)n(C)c(=O)c(C)c32)c1 [Trametinib] (partner 0.02 µM)
In short: as §1

GSK-J4 + Foretinib = compound: CCOC(=O)CCNc1cc(N2CCc3ccccc3CC2)nc(-c2ccccn2)n1 [GSK-J4] + COc1cc2c(Oc3ccc(NC(=O)C4(C(=O)Nc5ccc(F)cc5)CC4)cc3F)ccnc2cc1OCCCN1CCOCC1 [Foretinib] (partner 0.25 µM)
In short: as §1

Cell Line | relative viability (AZ3146 + Navitoclax; first compound 0.08 µM) | relative viability (AZ3146 + Navitoclax; first compound 0.253 µM) | relative viability (AZ3146 + Navitoclax; first compound 0.8 µM) | relative viability (AZ3146 + Navitoclax; first compound 2.53 µM) | relative viability (AZ3146 + Navitoclax; first compound 8 µM) | relative viability (GSK-J4 + Vorinostat; first compound 0.5 µM) | relative viability (GSK-J4 + Vorinostat; first compound 1.581 µM) | relative viability (GSK-J4 + Vorinostat; first compound 5 µM) | relative viability (GSK-J4 + Vorinostat; first compound 15.81 µM) | relative viability (GSK-J4 + Vorinostat; first compound 50 µM) | relative viability (AZ3146 + Trametinib; first compound 0.08 µM) | relative viability (AZ3146 + Trametinib; first compound 0.253 µM) | relative viability (AZ3146 + Trametinib; first compound 0.8 µM) | relative viability (AZ3146 + Trametinib; first compound 2.53 µM) | relative viability (AZ3146 + Trametinib; first compound 8 µM) | relative viability (GSK-J4 + Foretinib; first compound 0.5 µM) | relative viability (GSK-J4 + Foretinib; first compound 1.581 µM) | relative viability (GSK-J4 + Foretinib; first compound 5 µM) | relative viability (GSK-J4 + Foretinib; first compound 15.81 µM) | relative viability (GSK-J4 + Foretinib; first compound 50 µM)
NCI-H3122 | 1.05 | 0.985 | 1.03 | 1 | 1.03 | 0.984 | 0.876 | 0.966 | 0.905 | 0.986 | 0.245 | 0.228 | 0.224 | 0.204 | 0.251 | 0.983 | 1.01 | 0.938 | 1.05 | 0.969
PC-3 [JPC-3] | 0.679 | 0.836 | 0.802 | 0.797 | 0.85 | 1.05 | 0.723 | 0.671 | 0.624 | 0.725 | 0.709 |  | 0.596 | 0.728 | 0.626 | 0.96 | 1.01 | 1.01 | 0.959 | 0.762
PC-14 | 0.959 | 1.02 | 1.12 | 1.11 | 0.898 | 0.721 | 0.66 | 0.565 | 0.63 | 0.509 | 0.728 | 0.821 | 0.818 | 0.796 | 0.694 | 0.902 | 0.832 | 0.794 | 0.926 | 0.963
RERF-LC-KJ | 0.872 | 0.878 | 1.04 | 0.787 | 0.839 | 0.679 | 0.534 | 0.576 | 0.613 | 0.485 | 0.848 | 0.982 | 0.796 | 0.911 | 0.769 | 0.824 | 0.796 | 0.882 | 0.803 | 0.852
SK-LU-1 | 0.914 | 0.702 | 0.793 | 0.926 | 0.576 | 0.751 | 0.679 | 0.626 | 0.58 | 0.578 | 0.475 | 0.409 | 0.436 | 0.549 | 0.432 | 0.727 | 0.722 | 0.62 | 0.598 | 0.603
SK-MES-1 | 1.32 | 1.22 | 1.3 | 1.35 | 1.35 | 0.986 | 0.968 | 1.04 | 1.04 | 0.524 | 0.549 | 0.579 | 0.585 | 0.555 | 0.544 | 0.808 | 0.757 | 0.843 | 0.624 | 0.866
SW 1573 | 0.997 | 1.1 | 1.04 | 0.93 | 0.895 | 0.817 | 0.396 | 0.406 | 0.845 | 0.276 | 0.541 | 0.63 | 0.663 | 0.591 | 0.45 | 0.846 | 0.69 | 0.751 | 0.776 | 0.764
